Laboratory results taken from patent publication US20160213742A1, “COMPOSITIONS AND METHODS FOR THE TREATMENT OF FUNGAL INFECTIONS” (priority 2013, published 2016).
Converted amounts (≈) assume the structure as drawn. “Also recorded” adds a separate entry of the source.

How the values were obtained:
Format in all cases: cell-based
C. albicans ATCC 90028 = conditions: ATCC 90028, 24 h
Description: (§1) MIC and MEC assays were run as described in Example 31 with the following exceptions. Starting solutions of all antifungal agents were prepared in 100% DMSO. Stock concentrations were made at 50× the highest final assay concentration and serially diluted 2-fold, 16 times in a 96-well PCR plate (VWR 83007-374). Candida and Aspergillus suspensions from Sabouraud dextrose agar plate cultures were prepared in 0.85% saline at 0.5 McFarland standard (˜0.1 OD530 nm). Candida suspensions were diluted 1:500 in RPMI (MP Biomedicals, cat no. 1060124; buffered with MOPS and adjusted with NaOH to pH 7.0) to a concentration of ˜0.5-2.5×10^3 CFU/mL and Aspergillus suspensions were diluted 1:50 in RPMI to 0.4-5×10^4 CFU/mL final concentration. 98 μL of each cell suspension in RPMI were added to test wells in a 96-well assay plate (Costar cat. no. 3370). A Beckman Multimek 96 liquid handling robot was used to dispense 2 μL of each 50× stock compound into the plate containing 98 μL of each strain in RPMI (2% final solvent concentration). Plates were shaken then incubated at 35° C. for 24-48 h prior to reading. MIC values were read visually at 50% growth inhibition for echinocandins (24 h) and at 100% growth inhibition for amphotericin B (48 h). MEC values (24 h) were read with the aid of a microscope at the lowest echinocandin concentration where rounded/compact hyphal morphology was observed.

C. glabrata ATCC 90030 = conditions: ATCC 90030, 24 h
Description: as §1

C. krusei ATCC 14243 = conditions: ATCC 14243, 24 h
Description: as §1

[1] = test system: C. parapsilosis ATCC 22019; conditions: ATCC 22019, 24 h
Description: as §1

C. tropicalis ATCC 750 = conditions: ATCC 750, 24 h
Description: as §1

A. flavus ATCC MYA-3631 = assay: MEC assay (Example 32); conditions: MEC values (24 h), rounded/compact hyphal morphology
Description: as §1

A. fumigatus ATCC 13073 = assay: MEC assay (Example 32); conditions: MEC values (24 h), rounded/compact hyphal morphology
Description: as §1

A. fumigatus MYA-3626 = assay: MEC assay (Example 32); conditions: MEC values (24 h), rounded/compact hyphal morphology
Description: as §1

A. fumigatus MYA-4609 = assay: MEC assay (Example 32); conditions: MEC values (24 h), rounded/compact hyphal morphology
Description: as §1

A. niger ATCC 16404 = assay: MEC assay (Example 32); conditions: MEC values (24 h), rounded/compact hyphal morphology
Description: as §1

[2] = test system: Neutrophils purified from human peripheral blood; assay: Human Neutrophil Transwell Migration Assay; conditions: 37° C., 45 minutes, % of the maximum migration possible
From the text: Neutrophils were purified from human peripheral blood utilizing PolymorphPrep. Red blood cells were lysed with a lysis buffer and the cells were washed, counted and resuspended in assay buffer. Neutrophils (approximately 50,000 to 100,000 in number) were placed over 5-micon pore sized transwell plates in 24-well format with test compounds in the bottom chamber of each well. A negative control of media alone in the bottom chamber was set up in triplicate. A positive control where the neutrophils were added directly to the bottom well was set up in triplicate.
The plates were incubated at 37° C. for 45 minutes to allow for migration. After this time, migration was confirmed visually and then an aliquot (⅙^th of total cells) from each well was taken for ATP detection via luminescence with ATPlite (PerkinElmer) to quantify the number of migrated cells. The averaged reading for random migration detected in the negative control was subtracted from all readings to obtain the corrected migration number. These numbers were then divided by the averaged reading from the positive control to get the % Neutrophil Migration of the maximum migration possible.

human neutrophils = assay: Microfluidic Neutrophil Chemotaxis assay; conditions: for neutrophil (NF) migration counts (FIG. 1): 4 hour timepoint, relative to A. fumigatus alone
From the text: Two layers of photoresist (SU8; […] The wafer with patterned photoresist was used as a mold to produce polydimethylsiloxane (PDMS) (Fisher Scientific) devices, which were then bonded to the base of glass-bottom 12- or 24-well plates, using an oxygen plasma machine (Nordson-March). De-identified, fresh human blood samples from healthy volunteers, aged 18 years and older, who were not receiving immunosuppressants, were purchased from Research Blood Components, LLC. Peripheral blood was drawn in tubes containing a final concentration of 5 mM EDTA (Vacutainer; Becton Dickinson) and processed within 2 h of blood collection. Using a sterile technique, neutrophils were isolated from whole blood using HetaSep followed by the EasySep Human Neutrophil Enrichment Kit (STEMCELL Technologies) following the manufacturer's protocol. The purity of neutrophils was assessed to be >98% using the Sysmex KX-21N Hematology Analyzer (Sysmex America, Inc.). White blood cells were isolated using Hetasep followed by a 5 min spin down and wash with 1×PBS. White blood cells were stained with Hoechst (32.4 μM) (Sigma) following the manufacture's protocols. The final aliquots of white blood cells were resuspended in RPMI plus 10% fetal bovine serum (FBS−stock 50 mL FBS/450 mL RPMI) (Sigma-Aldrich) at a concentration of 20,000 cells/2 μL and kept at 37° C. Cells were then immediately introduced into the microfluidic device for the chemotaxis and Aspergillus fumigatus killing assay. All experiments were repeated at least three times with neutrophils or white blood cells from three different healthy donors. Immediately after bonding to the well plate, donut-shaped devices were filled with Aspergillus fumigatus conidia at a concentration of 10^6 cells/mL with or without either Compound 1 or Compound 11 [10 nM], caspofungin acetate [10 nM] and/or a solution of the chemoattractant N-formyl-methionyl-leucyl-phenylalanine (fMLP) [100 nM](Sigma-Aldrich, St. Louis, Mo.). The device was then placed in a vacuum for 15 min. The solution filled all of the FCCs as the air was displaced. The devices were then vigorously washed five times with 1×PBS to remove any residual Aspergillus fumigatus conidia, drug or chemoattractant that was outside of the FCCs. The device was then submerged in 0.5 mL of cell media. Neutrophils or white blood cells (20,000 cells/2 μL) were then pipetted into the cell loading chamber (CLC) using a gel-loading pipette tip. […] Image analysis of cell migration counts and fungi growth was analyzed by hand using Image J software. Neutrophil counts per chamber were counted every 15 min for the first 2 hours of the experiment and then every hour for the remaining 16 hours. Percentage of conidia that converted to hyphal growth was measured by counting conidia loaded per chamber before neutrophils or WBCs were loaded into the chamber and counting numbers of these conidia that grew hyphae by 18 hours. Fungal growth velocity was calculated using Image J. The 16 chambers in each device (n=3) were analyzed for at least three different healthy donors.

[3] = test system: Aspergillus fumigatus strain AF293; assay: Microfluidic Aspergillus fumigatus Killing Assay with human neutrophils
From the text: Microfluidic devices used to measure leukocyte migration in response to Aspergillus fumigatus with or without drug (Compound 1 or Compound 11), antifungal control (caspofungin acetate) and/or chemoattractant (fMLP) were manufactured using known microfabrication techniques. Two layers of photoresist (SU8; Microchem), the first one 10 μm thin (corresponding to the migration channels) and the second one 70 μm thick, corresponding to the focal chemotactic chambers (FCCs) were patterned on one silicon wafer sequentially using two photolithographic masks and processing cycles according to the instructions from the manufacturer. The wafer with patterned photoresist was used as a mold to produce polydimethylsiloxane (PDMS) (Fisher Scientific) devices, which were then bonded to the base of glass-bottom 12- or 24-well plates, using an oxygen plasma machine (Nordson-March).
Aspergillus fumigatus strain AF293 expressing either cytosolic red fluorescent protein (RFP) or green fluorescent protein (GFP) was grown on Sabouraud dextrose agar plates supplemented with 100 μg/mL ampicillin at 30° C. for 3-4 days. Conidia were harvested by gentle scraping followed by washing in ice-cold phosphate buffered saline (PBS) three times. Conidia were immediately used or stored at 4° C. for use within one week.
De-identified, fresh human blood samples from healthy volunteers, aged 18 years and older, who were not receiving immunosuppressants, were purchased from Research Blood Components, LLC. Peripheral blood was drawn in tubes containing a final concentration of 5 mM EDTA (Vacutainer; Becton Dickinson) and processed within 2 h of blood collection. Using a sterile technique, neutrophils were isolated from whole blood using HetaSep followed by the EasySep Human Neutrophil Enrichment Kit ([…] Technologies) following the manufacturer's protocol. The purity of neutrophils was assessed to be >98% using the Sysmex KX-21N Hematology Analyzer (Sysmex America, Inc.). White blood cells were isolated using Hetasep followed by a 5 min spin down and wash with 1×PBS. White blood cells were stained with Hoechst (32.4 μM) (Sigma) following the manufacture's protocols. The final aliquots of white blood cells were resuspended in RPMI plus 10% fetal bovine serum (FBS−stock 50 mL FBS/450 mL RPMI) (Sigma-Aldrich) at a concentration of 20,000 cells/2 μL and kept at 37° C. Cells were then immediately introduced into the microfluidic device for the chemotaxis and Aspergillus fumigatus killing assay. All experiments were repeated at least three times with neutrophils or white blood cells from three different healthy donors.
Immediately after bonding to the well plate, donut-shaped devices were filled with Aspergillus fumigatus conidia at a concentration of 10^6 cells/mL with or without either Compound 1 or Compound 11 [10 nM], caspofungin acetate [10 nM] and/or a solution of the chemoattractant N-formyl-methionyl-leucyl-phenylalanine (fMLP) [100 nM](Sigma-Aldrich, St. Louis, Mo.). The device was then placed in a vacuum for 15 min. The solution filled all of the FCCs as the air was displaced. The devices were then vigorously washed five times with 1×PBS to remove any residual Aspergillus fumigatus conidia, drug or chemoattractant that was outside of the FCCs. The device was then submerged in 0.5 mL of cell media. Neutrophils or white blood cells (20,000 cells/2 μL) were then pipetted into the cell loading chamber (CLC) using a gel-loading pipette tip. Neutrophil migration into the migration channel toward the FCC started immediately and was recorded using time-lapse imaging on a fully automated Nikon TiE microscope (10× magnification) with biochamber heated to 37° C. with 5% carbon dioxide gas. Image analysis of cell migration counts and fungi growth was analyzed by hand using Image J software.
Image analysis of cell migration counts and fungi growth was analyzed by hand using Image J software.

| MIC (C. albicans ATCC 90028) [µg/mL] | MIC (C. glabrata ATCC 90030) [µg/mL] | MIC (C. krusei ATCC 14243) [µg/mL] | MIC [1] [µg/mL] | MIC (C. tropicalis ATCC 750) [µg/mL] | Structure (SMILES) | MEC (A. flavus ATCC MYA-3631) [µg/mL] | MEC (A. fumigatus ATCC 13073) [µg/mL] | MEC (A. fumigatus MYA-3626) [µg/mL] | MEC (A. fumigatus MYA-4609) [µg/mL] | MEC (A. niger ATCC 16404) [µg/mL] | % Neutrophil Migration ([2]; conc 0.001 μg/mL) [%] | % Neutrophil Migration ([2]; conc 0.01 μg/mL) [%] | % Neutrophil Migration ([2]; conc 0.1 μg/mL) [%] | % Neutrophil Migration ([2]; conc 1 μg/mL) [%] | % Neutrophil Migration ([2]; conc 10 μg/mL) [%] | neutrophil (NF) migration counts (FIG. 1) (human neutrophils; 100 nM fMLP alone, no A. fumigatus) | neutrophil (NF) migration counts (FIG. 1) (human neutrophils; in the presence of Aspergillus fumigatus, Compound 1, Compound 11, caspofungin acetate 10 nM, fMLP 100 nM) | timecourse of neutrophil (PMNs) migration in FCCs (FIG. 4) (human neutrophils; with A. fumigatus, three healthy blood donors, t=0, 8, and 16 hours) | timecourse of A. fumigatus (Af) growth in FCCs (FIG. 4) ([3]; in presence of PMNs, three healthy blood donors, t=0, 8, and 16 hours) | percent hyphal growth compared to remaining conidia (FIG. 2) ([3]; with added neutrophils (NFs), Compound 1, Compound 11, caspofungin acetate 10 nM, fMLP 100 nM, hyphae by 18 hours) |
| --- | --- | --- | --- | --- | --- | --- | --- | --- | --- | --- | --- | --- | --- | --- | --- | --- | --- | --- | --- | --- |
| 2 (≈ 1.31 µM) | 8 (≈ 5.23 µM) | 32 (≈ 20.9 µM) | 32 (≈ 20.9 µM) | 2 (≈ 1.31 µM) | CC[C@H](C)C[C@H](C)CCCCCCCCC(=O)N[C@H]1C[C@@H](O)[C@@H](OCCN)NC(=O)[C@@H]2[C@@H](O)CCN2C(=O)[C@H]([C@H](O)CCNC(=O)[C@H](Cc2ccccc2)NC(=O)[C@H](CC(C)C)NC(=O)[C@H](CC[S+](C)[O-])NC=O)NC(=O)[C@H]([C@H](O)[C@@H](O)c2ccc(O)cc2)NC(=O)[C@@H]2C[C@@H](O)CN2C(=O)[C@H]([C@@H](C)O)NC1=O (some centres unmarked) [Compound 30] | 0.5 | 0.25 | 1 | 0.5 | 0.5 | 105.2 | 133.6 | 234.3 | 48.2 | 19.7 | – | – | – | – | – |
| – | – | – | – | – | CSCC[C@H](NC=O)C(=O)N[C@@H](CC(C)C)C(=O)N[C@@H](Cc1ccccc1)C(=O)O [fMLP, N-formyl-methionyl-leucyl-phenylalanine, reference compound] | – | – | – | – | – | – | – | – | – | – | increased NF migration | increased NF migration | migration of PMNs | inhibition of growth of Af | inhibition of Aspergillus fumigatus hyphal growth; also recorded: able to suppress hyphal growth |
